Source: patent US20250339442A1, “METHODS OF TREATMENT USING A DUAL SPECIFICITY TYROSINE-PHOSPHORYLATION-REGULATED KINASE 1A (DYRK1A) INHIBITOR” (Fresh Tracks Therapeutics, Inc., priority 2022, published 2025)
“Also recorded” adds a separate entry of the source.

Experiments:
[1] = test system: house dust-induced atopic dermatitis; assay: House dust-induced atopic dermatitis model; type: in vivo, mice
From the text: The potential anti-inflammatory and anti-pruritic effects of Compound A were investigated in a house dust-induced atopic dermatitis model in mice.

[2] = test system: PBMCs from subjects with ulcerative colitis; assay: Pro-inflammatory cytokine expression in PBMCs from subjects with ulcerative colitis (cytometric bead array); type: cell-based, human
From the text: The anti-inflammatory effect of Compound A in PBMCs from subjects with ulcerative colitis was studied. The expression of pro-inflammatory cytokines IL-1β, IL 6, IL-8, IL-10 and TNF-α was investigated using a cytometric bead array (CBA).

[3] = test system: IMQ-induced psoriasis-like inflammation; assay: Imiquimod (IMQ)-induced psoriasis-like dermal inflammation; type: in vivo; details: BALB/c mice
From the text: The anti-inflammatory activity of Compound A in the imiquimod (IMQ)-induced psoriasis-like dermal inflammation in BALB/c mice was investigated.

[4] = test system: Collagen-Induced Arthritis; assay: Collagen-Induced Arthritis Model; type: in vivo, DBA/1 mice; details: 60 mg/kg once daily, vs vehicle only treated animals
Method: Furthermore, the efficacy of Compound A in the Collagen-Induced Arthritis Model in DBA/1 mice was tested. Immunization with Type II Chicken Collagen led to the development of arthritis. In comparison with vehicle only treated animals, mice treated once daily with 60 mg/kg Compound A led to a reduction in arthritis index scores, paw measurements, and histopathology scores.

CD4+ T cells = assay: Differentiation of CD4+ T cells (Th1, Th17, Treg); type: cell-based
From the text: Th1 and Th17 cells are main players contributing to organ specific autoimmune disease and inflammation.

[5] = oral 30 mg/kg/day QD or BID x 21 days, in comparison with controls

CCNc1cc(Nc2ccc(C(=O)N3CCC(N4CCOCC4)CC3)cc2OC)nc2[nH]cc(C(F)(F)F)c12 [Compound A, (4-((4-(ethylamino)-3-(trifluoromethyl)-1H-pyrrolo[2,3-b]pyridin-6-yl)amino)-3-methoxyphenyl)(4-morpholinopiperidin-1-yl)methanone]
T cell subset levels in the skin (immunohistochemical staining) ([1]; in comparison with vehicle controls and the positive control abrocitinib): decreased all subset levels in the skin
IL-4 level in the skin [1, 5]: markedly reduced
IL-13 level in the skin [1, 5]: markedly reduced
IL-17 level in the skin [1, 5]: markedly reduced
expression of pro-inflammatory cytokines IL-1β, IL 6, IL-8, IL-10 and TNF-α [2]: reducing pro inflammatory cytokines in PBMCs; also recorded: statistically significant reduction
IMQ-induced psoriasis-like inflammation (ear swelling) ([3]; 45 mg/kg PO BID x 9 days): significantly (p<0.05) protective effects
IMQ-induced psoriasis-like inflammation (ear swelling) ([3]; 60 mg/kg PO BID x 9 days): significantly (p<0.05) protective effects
arthritis index scores [4]: reduction
histopathology scores [4]: reduction
paw measurements [4]: reduction
development of Treg cells (CD4+ T cells): enhanced the development of Treg cells; also recorded: enhancing the development of Treg cells
differentiation of Th1 and Th17 cells (CD4+ T cells): inhibiting the differentiation of Th1 and Th17 cells; also recorded: inhibition of Th1 and Th7 cells
